The text below walks through data of patent publication US10980754B2, “Anti-fungal compounds” (SAINT LOUIS UNIVERSITY, priority 2016, dated 2021).

The subject of data set [1] is C. neoformans var grubii, KN99. As to the kind of experiment: Inhibition of C. neoformans growth, limiting dilution assay (MIC). The class given is cell-based. The conditions noted are these: Cryptococcus neoformans; for MIC: measured alone, 80% of cells inhibited relative to vehicle, run with synergy and fungicidal assays. Here is the method:
Strains and media. All inhibition assays were performed with C. neoformans var grubii, KN99 (serotype A, MATα; kindly provided by Jennifer Lodge). Two clinical strains of C. neoformans var grubii, serotype A, were kindly provided by Tamara Doering and Andre Spec. […] Each assay was done in triplicate and all values are the average of two or more independent assays. The data are presented as the average cell density as a percent of DMSO-only treated cells. […] However, these conditions are unlike conditions encountered by C. neoformans in mammalian infections, where nutrients are limited, and the pH and temperature are higher than in YPD media. The cryptococcal stress response to low glucose and high pH and temperature may alter its susceptibility to the inhibitors. It is also possible that the enzymes targeted by the inhibitors may render the cell temperature sensitive when inhibited. To better mimic growth in mammals, growth was tested without shaking in nutrient-limited media at 35° C. […] However, as the nutrient-limited media and higher temperature is more similar to mammalian cell growth conditions, these conditions were used for all further assays. […] All values were measured at least two times in independent experiments and the average MIC is reported.

Data set [2] relates to C. neoformans. Briefly: Fungicidal assay. It counts as cell-based. The conditions noted are these: 48 hours exposure at 2×, 4× and 8× the MIC, spotted, 30° C. for 2 days. Here is the method: To test for fungicidal activity, aliquots of cells were removed after 48 hours of growth in the presence of test compounds at 2×, 4×, and 8× the respective MICs and spotted them on YPD plates. The plates were incubated at 30° C. for 2 days and checked for growth. Growth of cells treated with test compounds was compared to FLC-treated cells, which is known to be fungistatic and to AMB-treated cells, which is known to be fungicidal (Klepser, et al., 1998; Mesa-Arango, et al., 2014).
compounds #54 and #284 were evaluated for fungicidal versus fungistatic activity. This analysis was done in a qualitative assay in parallel with FLC, which is known to be fungistatic (Klepser, et al., 1998) and AMB, which is known to be fungicidal (Mesa-Arango, et al., 2014). The MICs were 3 μM (0.9 μg/mL), 1.5 μM (1.4 μg/mL), 12 μM and 0.31 μM for FLC, AMB, #54 and #284 respectively. (FIGS. 8A & 8B).

Data set [3] concerns clinical strains of C. neoformans var grubii, serotype A. Briefly: MIC in two independent clinical strains. The class given is cell-based. The conditions noted are these: Cryptococcus neoformans. On the procedure: Strains and media. All inhibition assays were performed with C. neoformans var grubii, KN99 (serotype A, MATα; kindly provided by Jennifer Lodge). Two clinical strains of C. neoformans var grubii, serotype A, were kindly provided by Tamara Doering and Andre Spec. […] Cells were incubated without shaking for 48 hours at 35° C. and cell density was measured at […]. […] Each assay was done in triplicate and all values are the average of two or more independent assays. The data are presented as the average cell density as a percent of DMSO-only treated cells. MICs are reported as the minimal concentration needed to inhibit 80% of C. neoformans growth relative to vehicle-treated controls. Another thirty-seven of the molecules are αHTs (FIG. 4), which have a third contiguous oxygen atom on the troponoid ring.

Data set [4] has as its system KN99α cells. As to the kind of experiment: Inhibition under capsule-inducing conditions (MIC). It counts as cell-based. The following applies: Cryptococcus neoformans; YNB-02+1% DMSO, 37° C. with 5% CO2, 48 hours. On the procedure: KN99α cells were grown overnight in YPD at 30° C. with shaking. […] Capsule was visualized using bright-field microscopy as a halo surrounding the yeast cell through India ink exclusion. The screening was conducted in the nutrient-limited media YNB-02 at 35° C. to mimic some aspects of the growth conditions in humans. […] The untreated cells grown in YNB-02 were able to elaborate the capsule (FIG. 7D) compared to cells grown overnight in YPD at 30° C. (FIG. 7C).

In data set [5] the test system is C. neoformans var grubii, KN99. As to the kind of experiment: Synergy (checkerboard) assay with Fluconazole or Amphotericin B. It counts as cell-based. The following applies: in combination with either FLC or AMB.
Method: Each assay was performed in triplicate and all values are the average of two or more independent assays. The fractional inhibitory concentration index (FICI) model is expressed as ΣFIC=FICA+FICB=MICA′/MICA+MICB′/MICB, where MICA, and MICB are the MIC values of agents A and B used alone and MICA′ and MICB′ are the MICs of agents A and B used in combination.
Data set [6] can be described thus: Cytotoxicity in hepatoma cells (MTS). The following applies: human, HepDES19 cells, CC50, HepDES19 cells, 72 hours, MTS. On the procedure: HepDES19 cells (1.0×10^4 cells per well) were seeded in 96-well plates and incubated in DMEM with 10% fetal bovine serum (FBS) plus 1% penicillin and streptomycin, 1% nonessential amino acids, and 1% glutamine. The compounds were diluted in the medium at concentrations ranging from 0.78 to 100 μM plus 1% DMSO and added to the cells 48 hours after plating, with each concentration tested in triplicate. Cells were incubated with the compound for 72 hours and cytotoxicity was measured using a mitochondrial metabolic assay with MTS (Promega). The data were transformed to log[inhibitor] and fit to a 4-variable slope curve using GraphPad Prism (v6, www.graphpad.com).
Three days later, the MTS reagent was added for 90 minutes prior to terminating the incubation period and reading the OD480.

The subject of data set [7] is KN99α cells. Briefly: MIC assays of hydrolysis products of #284 and p-benzoic acid. The class given is cell-based, C. neoformans. The conditions noted are these: dilution series 0.19-50 μM, 48 hours at 35° C. On the procedure: FIG. 6. […] Values are mean±standard deviation from three replicates.
The solution was mixed by vortexing until a prominent color change (pale yellow to dark orange) was apparent. This reaction was performed in triplicate. One aliquot of the reaction mixture was stored at room temperature, one at 35° C., and one at 40° C. After 24 hours, the reaction mixtures were neutralized with HCl.
This would release a tropothione, possibly in multiple oxidation states, as well as p-benzoic acid, any of which could potentially act as inhibitors.

Converted amounts (≈) assume the structure as drawn.

The term MIC denotes the lowest concentration that inhibits growth of the organism. For the molecule `OC(Cn1cncn1)(Cn1cncn1)c1ccc(F)cc1F` [FLC, Fluconazole, reference compound], the figures for the MIC in data set [1] (48 h) and in data set [1] were 3 µM and 0.9 µg/mL, respectively. Further, in data set [2], the “cell growth on YPD plates after drug exposure” value is given as “Significant cell growth”.
As usually defined, the MIC80 is the lowest concentration that inhibits either 80% of growth or 80% of the strains tested, depending on the study. A lower MIC80 goes with higher susceptibility. By CC50 is commonly meant the concentration giving 50% cytotoxicity. As for `O=c1ccccc(Br)c1O` [Compound 54, 3-bromotropolone], the figures for the MIC in data set [1] (48 h), in data set [3] and in data set [4] were 12 µM, 6 to 12 µM (≈ 1.21 to 2.41 µg/mL) and 6 to 12 µM (≈ 1.21 to 2.41 µg/mL), respectively. The MIC80 in data set [1] (KN99α, YNB-02+1% DMSO, 35° C., 48 hours, minimal concentration inhibiting 80% of growth relative to vehicle) was 7 µM (≈ 1.41 µg/mL). The FIC index in data set [5] is listed as 2. Further, in data set [5], the FIC value is listed as 1. In data set [6], this molecule returned a CC50 at 72 h of 95 µM.
Consider p-benzoic acid, for which the MIC in data set [7] is > 50 µM.
Take `C[C@@H]1[C@H](O)[C@@H](C)/C=C/C=C/C=C/C=C/C=C/C=C/C=C/[C@H](O[C@@H]2O[C@H](C)[C@@H](O)[C@H](N)[C@@H]2O)C[C@@H]2O[C@](O)(C[C@@H](O)C[C@@H](O)[C@H](O)CC[C@@H](O)C[C@@H](O)CC(=O)O[C@H]1C)C[C@H](O)[C@H]2C(=O)O` [AMB, Amphotericin B]: the “cell growth on YPD plates after drug exposure” value in data set [2] is on record as “no cell growth”.
